Usually IC50 stands for the concentration needed to halve the response being measured.

Where two headings read alike, the source gives them in different places.

The subject of test [1] is KDM5A/B. Kind of test: In vitro cell-based assay: quantitative immuno-blotting of tri-methyl H3K4 in ZR-75-1 breast cancer cells. Particulars: 72 hours exposure, read-out: Cellular IC50. An excerpt:
This quantitative immuno-blotting assay measures the amount tri-methylated histone H3 at amino acid Lysine number 4, a specific substrate […] of the direct enzymatic activity of the histone demethylases KDM5A and KDM5B from extracts of the ZR-75-1 breast cancer cell line.
This assay is a fluorometric immunoassay for the quantification of tri-methyl H3K4 extracted from cells treated with test compound and is used as a measure of the cellular inhibition of KDM5A/B.
ZR-75-1 (PTEN null, ER+) breast cancer cells numbering 50,000 (ATCC) were seeded into each well of a 96-well tissue culture treated plate and then exposed to an 11 point dilution of test compound with final concentration ranges of test compound ranging from […] to 10 nM. […] Extracts were prepared containing all of the cellular histone material using detergent based lysis and sonication methods. These lysates were subsequently normalized for total protein content using a colorimetric bicinchonic acid assay (MicroBCA Pierce/Thermo Scientific). Normalized cell extracts were then subjected to typical immuno-blotting procedures using NuPage reagents (Life Technologies). Electrophoretically separated histones were then transferred and immobilized using polyvinylidene difluoride membrane (Immobilon-FL Millipore). The amount of tri-methylated lysine 4 of histone H3 was detected using an antibody specific to the tri-methylated state (Cell Signaling Technologies) and quantified on an infrared imager using a densitometry software package (Odyssey CLx, Image Studio, Li-Cor). This background subtracted densitometry value was reported as a ration of the GAPDH amount for that sample and then calculated as a percent of the DMSO treated sample. The software package XL-fit (IDBS) was then used to calculate a relative IC50 value for the dilution series of a given test compound according to the equation: fit=(D+((Vmax*(x^n))/((x^n)+(Km^n)))).

For test [2], the target named is FBXL10 (Homo sapiens (Human), UniProt Q8NHM5). Kind of test: FBXL10 in vitro enzyme inhibition assay (AlphaScreen). It is filed as biochemical. The protocol:
Reaction product was determined quantitatively by AlphaScreen detection after the addition of detection reagents anti-H3K36me1 antibody, AlphaScreen® Streptavidin-coated Donor beads, and AlphaScreen® Protein A Acceptor beads in 50 mM HEPES, pH7.3, 10 mM NaCl, 0.005% Brij35, 5 mM EDTA, 2 mg/ml BSA to final 10 μg/ml beads.
Plates were incubated at room temperature for 40 minutes, followed by addition of 3 μl of 50 μg/ml AlphaScreen® Streptavidin-coated Donor beads and AlphaScreen® Protein A Acceptor beads in 50 mM HEPES, pH7.3, 10 mM NaCl, 0.005% Brij35, 5 mM EDTA, 2 mg/ml BSA. Plates were read by EnVisionMultilabel Reader in AlphaScreen mode after a minimum of 2 hour or up to overnight incubation at room temperature. The AlphaScreen signal for each well was used to determine inhibition constant (IC50).

The target in test [3] is JMJD2C (Homo sapiens (Human), UniProt Q9H3R0). In words: JMJD2C in vitro enzyme inhibition assay (TR-FRET). It is filed as biochemical. In general terms: Time-resolved FRET reads energy transfer from a long-lived donor to a nearby acceptor.
Method: Baculovirus expressed JMJD2C (GenBank Accession #BC143571, AA 2-372) was purchased from BPS Bioscience (Cat#50105).
The ability of test compounds to inhibit the activity of JMJD2C was determined in 384-well plate format under the following reaction conditions: 0.3 nM JMJD2C, 300 nM H3K9me3-biotin labeled peptide (Anaspec cat #64360), 2 μM alpha-ketoglutaric acid in assay buffer of 50 mM HEPES, pH7.3, 0.005% Brij35, 0.5 mM TCEP, 0.2 mg/ml BSA, 50 μM sodium L-ascorbate, and 2 μM ammonium iron(II) sulfate. Reaction product was determined quantitatively by TR-FRET after the addition of detection reagent Phycolink Streptavidin-allophycocyanin (Prozyme) and Europium-anti-di-methylated histone H3 lysine 9 (H3K9me2) antibody (PerkinElmer) in the presence of 5 mM EDTA in LANCE detection buffer (PerkinElmer) at a final concentration of 50 nM and 1 nM, respectively.
The assay reaction was initiated by the following: 2 μl of the mixture of 900 nM H3K9me3-biotin labeled peptide and 6 μM alpha-ketoglutaric acid with 2 μl of 11-point serial diluted inhibitor in 3% DMSO were added to each well of the plate, followed by the addition of 2 μl of 0.9 nM JMJD2C to initiate the reaction. The reaction mixture was incubated at room temperature for 30 minutes, and terminated by the addition of 6 μl of 5 mM EDTA in LANCE detection buffer containing 100 nM Phycolink Streptavidin-allophycocyanin and 2 nM Europium-anti-H3K9me2 antibody. Plates were read by EnVisionMultilabel Reader in TR-FRET mode (excitation at 320 nm, emission at 615 nm and 665 nm) after 1 hour incubation at room temperature. A ratio was calculated (665/615) for each well and fitted to determine inhibition constant (IC50).
The target in test [4] is Jarid1A (Homo sapiens (Human), UniProt P29375). In words: Jarid1A in vitro enzyme inhibition assay (TR-FRET). It is filed as biochemical. An excerpt:
The enzymatic assay of Jarid1A activity is based upon Time Resolved-Fluorescence Resonance Energy Transfer (TR-FRET) detection.

The target in test [5] is JMJD2A (Homo sapiens (Human), UniProt O75164). Kind of test: JMJD2A in vitro enzyme inhibition assay (TR-FRET). Particulars: read-out: JMJD2A IC50.
Method: (§1) This assay determines the ability of a test compound to inhibit Jarid1A, Jarid1B, JMJD2C, and JMJD2A demethylase activity.
Reaction product was determined quantitatively by TR-FRET after the addition of detection reagent Phycolink Streptavidin-allophycocyanin (Prozyme) and Europium-anti-di-methylated histone H3 lysine 9 (H3K9me2) antibody (PerkinElmer) in the presence of 5 mM EDTA in LANCE detection buffer (PerkinElmer) at a final concentration of 50 nM and 1 nM, respectively.
The assay reaction was initiated by the following: 2 μl of the mixture of 900 nM H3K9me3-biotin labeled peptide and 6 μM alpha-ketoglutaric acid with 2 μl of 11-point serial diluted inhibitor in 3% DMSO were added to each well of plate, followed by the addition of 2 μl of 6 nM JMJD2A to initiate the reaction. The reaction mixture was incubated at room temperature for 30 minutes, and terminated by the addition of 6 μl of 5 mM EDTA in LANCE detection buffer containing 100 nM Phycolink Streptavidin-allophycocyanin and 2 nM Europium-anti-H3K9me2 antibody.
Test [6] deals with Jarid1B (Homo sapiens (Human), UniProt Q9UGL1). Kind of test: Jarid1B in vitro enzyme inhibition assay (TR-FRET). It is filed as biochemical.
Chain of Jarid1B (Q9UGL1 2-751): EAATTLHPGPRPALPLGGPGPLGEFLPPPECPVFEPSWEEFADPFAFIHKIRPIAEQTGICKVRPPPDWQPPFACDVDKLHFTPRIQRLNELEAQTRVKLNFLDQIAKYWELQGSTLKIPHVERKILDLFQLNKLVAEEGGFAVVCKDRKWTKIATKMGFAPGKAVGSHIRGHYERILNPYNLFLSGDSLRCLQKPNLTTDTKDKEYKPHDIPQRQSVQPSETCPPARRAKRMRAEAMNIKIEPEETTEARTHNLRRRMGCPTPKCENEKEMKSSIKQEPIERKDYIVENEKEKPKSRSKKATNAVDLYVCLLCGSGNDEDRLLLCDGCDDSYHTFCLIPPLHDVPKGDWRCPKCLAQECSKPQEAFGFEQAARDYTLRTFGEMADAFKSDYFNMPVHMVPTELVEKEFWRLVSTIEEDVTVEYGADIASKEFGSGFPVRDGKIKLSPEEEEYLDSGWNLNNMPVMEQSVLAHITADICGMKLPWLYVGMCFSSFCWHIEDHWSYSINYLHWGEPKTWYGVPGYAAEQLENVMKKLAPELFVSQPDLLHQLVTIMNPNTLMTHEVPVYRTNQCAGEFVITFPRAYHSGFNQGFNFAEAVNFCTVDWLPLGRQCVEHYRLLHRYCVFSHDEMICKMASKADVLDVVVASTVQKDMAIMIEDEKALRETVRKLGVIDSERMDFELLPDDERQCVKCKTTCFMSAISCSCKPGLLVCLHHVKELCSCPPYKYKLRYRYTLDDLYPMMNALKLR
Method: as §1
The ability of test compounds to inhibit the activity of Jarid1B was determined in 384-well plate format under the following reaction conditions: 0.8 nM Jarid1B, 300 nM H3K4me3-biotin labeled peptide (Anaspec cat #64357), 2 μM alpha-ketoglutaric acid in assay buffer of 50 mM HEPES, pH7.3, 0.005% Brij35, 0.5 mM TCEP, 0.2 mg/ml BSA, 50 μM sodium L-ascorbate, and 2 μM ammonium iron(II) sulfate. Reaction product was determined quantitatively by TR-FRET after the addition of detection reagent Phycolink Streptavidin-allophycocyanin (Prozyme) and Europium-anti-mono- or di-methylated histone H3 lysine 4 (H3K4me1-2) antibody (PerkinElmer) in the presence of 5 mM EDTA in LANCE detection buffer (PerkinElmer) at a final concentration of 25 nM and 1 nM, respectively.
The assay reaction was initiated by the following: 2 μl of the mixture of 900 nM H3K4me3-biotin labeled peptide and 6 μM alpha-ketoglutaric acid with 2 μl of 11-point serial diluted inhibitor in 3% DMSO was added to each well of the plate, followed by the addition of 2 μl of 2.4 nM Jarid1B to initiate the reaction. The reaction mixture was incubated at room temperature for 30 minutes, and terminated by the addition of 6 μl of 5 mM EDTA in LANCE detection buffer containing 50 nM Phycolink Streptavidin-allophycocyanin and 2 nM Europium-anti-H3K4me1-2 antibody. Plates were read by EnVisionMultilabel Reader in TR-FRET mode (excitation at 320 nm, emission at 615 nm and 665 nm) after 1 hour incubation at room temperature. A ratio was calculated (665/615) for each well and fitted to determine inhibition constant (IC50).

Chain of Jarid1A (P29375 1-1090): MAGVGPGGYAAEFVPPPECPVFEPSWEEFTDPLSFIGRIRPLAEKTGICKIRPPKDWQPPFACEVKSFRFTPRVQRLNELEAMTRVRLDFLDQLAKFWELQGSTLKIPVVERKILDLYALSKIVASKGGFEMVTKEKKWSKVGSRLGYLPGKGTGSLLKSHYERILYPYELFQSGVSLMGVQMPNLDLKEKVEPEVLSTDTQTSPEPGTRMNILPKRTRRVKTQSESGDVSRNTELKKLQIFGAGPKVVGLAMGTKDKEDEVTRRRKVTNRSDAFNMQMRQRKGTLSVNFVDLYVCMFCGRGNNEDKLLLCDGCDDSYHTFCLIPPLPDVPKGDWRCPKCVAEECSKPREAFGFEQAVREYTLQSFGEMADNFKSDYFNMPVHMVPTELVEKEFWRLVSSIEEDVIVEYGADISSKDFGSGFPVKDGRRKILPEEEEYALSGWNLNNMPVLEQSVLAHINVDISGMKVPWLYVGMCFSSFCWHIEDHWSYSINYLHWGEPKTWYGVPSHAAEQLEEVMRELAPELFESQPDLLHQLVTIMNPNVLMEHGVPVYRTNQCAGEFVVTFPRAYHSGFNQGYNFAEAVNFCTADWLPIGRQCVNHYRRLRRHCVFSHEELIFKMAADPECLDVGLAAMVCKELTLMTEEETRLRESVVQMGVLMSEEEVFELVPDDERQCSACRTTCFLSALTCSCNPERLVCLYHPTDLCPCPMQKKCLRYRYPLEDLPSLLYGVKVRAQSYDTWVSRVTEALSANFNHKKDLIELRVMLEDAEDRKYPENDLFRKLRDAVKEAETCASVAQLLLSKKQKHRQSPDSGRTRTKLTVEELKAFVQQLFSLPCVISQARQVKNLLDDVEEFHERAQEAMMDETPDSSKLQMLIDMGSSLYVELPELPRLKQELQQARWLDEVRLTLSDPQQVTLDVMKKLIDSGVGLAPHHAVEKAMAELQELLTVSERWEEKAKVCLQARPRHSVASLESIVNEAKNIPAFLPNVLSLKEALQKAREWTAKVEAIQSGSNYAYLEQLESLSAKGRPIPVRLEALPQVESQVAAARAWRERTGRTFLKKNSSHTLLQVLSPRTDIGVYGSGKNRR
Chain of JMJD2A (O75164 1-350): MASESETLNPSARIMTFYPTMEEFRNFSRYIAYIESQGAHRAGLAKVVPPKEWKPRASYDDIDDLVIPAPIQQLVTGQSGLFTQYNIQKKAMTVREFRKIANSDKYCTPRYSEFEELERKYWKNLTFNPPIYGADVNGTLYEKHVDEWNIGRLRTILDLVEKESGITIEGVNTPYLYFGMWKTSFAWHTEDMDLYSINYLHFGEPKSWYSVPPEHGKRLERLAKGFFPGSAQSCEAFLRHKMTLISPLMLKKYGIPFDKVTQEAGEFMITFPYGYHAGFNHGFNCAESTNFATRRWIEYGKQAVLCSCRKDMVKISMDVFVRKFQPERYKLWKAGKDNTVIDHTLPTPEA
Chain of FBXL10 (Q8NHM5 1-650): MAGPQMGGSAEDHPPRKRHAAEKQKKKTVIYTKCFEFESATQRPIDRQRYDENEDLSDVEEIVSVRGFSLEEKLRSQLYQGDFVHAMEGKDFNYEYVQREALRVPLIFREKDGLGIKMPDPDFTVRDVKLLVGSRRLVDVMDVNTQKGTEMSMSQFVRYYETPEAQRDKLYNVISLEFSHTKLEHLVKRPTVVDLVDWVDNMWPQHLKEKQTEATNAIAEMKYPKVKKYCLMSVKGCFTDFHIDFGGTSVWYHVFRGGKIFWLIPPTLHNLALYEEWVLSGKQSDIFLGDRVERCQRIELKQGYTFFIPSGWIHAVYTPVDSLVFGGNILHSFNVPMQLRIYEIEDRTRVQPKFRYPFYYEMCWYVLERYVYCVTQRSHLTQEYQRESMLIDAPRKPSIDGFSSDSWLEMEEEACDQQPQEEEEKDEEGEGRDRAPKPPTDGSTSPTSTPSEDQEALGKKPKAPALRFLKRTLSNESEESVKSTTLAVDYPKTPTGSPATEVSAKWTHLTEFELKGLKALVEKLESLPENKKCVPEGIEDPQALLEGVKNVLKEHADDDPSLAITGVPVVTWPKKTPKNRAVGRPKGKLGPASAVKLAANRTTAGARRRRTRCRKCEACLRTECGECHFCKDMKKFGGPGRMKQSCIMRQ
Chain of JMJD2C (Q9H3R0 2-372): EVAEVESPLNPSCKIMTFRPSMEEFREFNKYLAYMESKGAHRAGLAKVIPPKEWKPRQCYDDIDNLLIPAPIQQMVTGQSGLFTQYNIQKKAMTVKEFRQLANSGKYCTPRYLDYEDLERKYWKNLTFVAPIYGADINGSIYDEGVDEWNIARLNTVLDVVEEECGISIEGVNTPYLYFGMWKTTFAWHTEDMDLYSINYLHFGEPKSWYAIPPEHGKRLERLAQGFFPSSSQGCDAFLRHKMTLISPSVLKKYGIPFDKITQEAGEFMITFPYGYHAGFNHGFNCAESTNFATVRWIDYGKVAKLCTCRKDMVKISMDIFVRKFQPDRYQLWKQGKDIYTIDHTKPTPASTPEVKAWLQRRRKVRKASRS

For the compound `O=C(O)c1ccnc(-n2nccc2OCc2ccc(F)c(OCc3ccc(F)cc3)c2)c1` [Example 139, 2-[5-[[4-fluoro-3-[(4-fluorophenyl)methoxy]phenyl]methoxy]pyrazol-1-yl]pyridine-4-carboxylic acid], the IC50 in test [1] (Homo sapiens) lay in the range of 0.1 to 1 µM.

In the case of `COc1cc(C)ccc1COc1ccnn1-c1cc(C(=O)O)ccn1` [Example 133, 2-[5-[(2-methoxy-4-methylphenyl)methoxy]pyrazol-1-yl]pyridine-4-carboxylic acid], the IC50 in test [1] (Homo sapiens) was 0.1 to 1 µM; in test [2], 1 to 10 µM; in test [3], 0.1 to 1 µM; in test [4], less than 0.1 µM; in test [5] it was 0.1 to 1 µM; in test [6], less than 0.1 µM.

With `O=C(O)c1ccnc(-n2nccc2OCc2cccc(Br)c2)c1` [Example 72, 2-{5-[(3-bromobenzyl)oxy]-1H-pyrazol-1-yl}pyridine-4-carboxylic acid], the IC50 in test [1] (Homo sapiens) was 1 to 10 µM; in test [3], less than 0.1 µM; in test [4], less than 0.1 µM; in test [6], less than 0.1 µM.

Consider `Cn1ncc2ccc(COc3ccnn3-c3cc(C(=O)O)ccn3)cc21` [Example 50, 2-{5-[(1-methyl-1H-indazol-6-yl)methoxy]-1H-pyrazol-1-yl}pyridine-4-carboxylic acid], for which the IC50 is more than 10 µM in test [1] (Homo sapiens), 0.1 to 1 µM in test [2], less than 0.1 µM in test [4] and less than 0.1 µM in test [6].

On to `CCOc1cc(Cl)ccc1COc1ccnn1-c1cc(C(=O)O)ccn1` [Example 115, 2-[5-[(4-chloro-2-ethoxyphenyl)methoxy]pyrazol-1-yl]pyridine-4-carboxylic acid], for which the IC50 in test [1] (Homo sapiens) was 0.1 to 1 µM; in test [3], 0.1 to 1 µM; in test [4] it was less than 0.1 µM; in test [6] it was less than 0.1 µM.

With `O=C(O)c1ccnc(-n2nccc2OCc2ccc(Cl)c(Cl)c2)c1` [Example 87, 2-[5-[(3,4-dichlorophenyl)methoxy]pyrazol-1-yl]pyridine-4-carboxylic acid], the IC50 in test [1] (Homo sapiens) was 0.1 to 1 µM; in test [3], 0.1 to 1 µM; in test [4], less than 0.1 µM; in test [6], less than 0.1 µM.

On to `Cc1cc(C#N)ccc1COc1ccnn1-c1cc(C(=O)O)ccn1` [Example 125, 2-[5-[(4-cyano-2-methylphenyl)methoxy]pyrazol-1-yl]pyridine-4-carboxylic acid], for which the IC50 was 1 to 10 µM in test [1] (Homo sapiens), 0.1 to 1 µM in test [3], less than 0.1 µM in test [4] and less than 0.1 µM in test [6].

As to `Cc1ccc(COc2ccnn2-c2cc(C(=O)O)ccn2)c(C)c1` [Example 132, 2-[5-[(2,4-dimethylphenyl)methoxy]pyrazol-1-yl]pyridine-4-carboxylic acid], the IC50 in test [2] was 1 to 10 µM; in test [3] it was 0.1 to 1 µM; in test [4] it was less than 0.1 µM; in test [5], 0.1 to 1 µM; in test [6], less than 0.1 µM.

`Cc1cc(Cl)ccc1COc1ccnn1-c1cc(C(=O)O)ccn1` [Example 89, 2-[5-[(4-chloro-2-methylphenyl)methoxy]pyrazol-1-yl]pyridine-4-carboxylic acid]: the IC50 is less than 0.1 µM in test [1] (Homo sapiens); 0.1 to 1 µM in test [2]; 0.1 to 1 µM in test [3]; less than 0.1 µM in test [4]; less than 0.1 µM in test [6].

`O=C(O)c1ccnc(-n2nccc2OCc2ccc(Cl)cc2OCc2ccc(F)cc2)c1` [Example 117, 2-[5-[[4-chloro-2-[(4-fluorophenyl)methoxy]phenyl]methoxy]pyrazol-1-yl]pyridine-4-carboxylic acid]: the IC50 in test [1] (Homo sapiens) is 1 to 10 µM; in test [2] it was 1 to 10 µM; in test [3], 1 to 10 µM; in test [4], 0.1 to 1 µM; in test [5] it was 1 to 10 µM; in test [6] it was 0.1 to 1 µM.

For `O=C(O)c1ccnc(-n2nc(C3CCCC3)cc2O)c1` [Example 160, 2-(3-cyclopentyl-5-hydroxypyrazol-1-yl)pyridine-4-carboxylic acid], the concentration for half-maximal inhibition (IC50) in test [2] is less than 0.1 µM; in test [3], 1 to 10 µM; in test [4] it was 1 to 10 µM; in test [5], more than 10 µM; in test [6] it was 0.1 to 1 µM.

Consider `CCc1cc(Cl)ccc1COc1ccnn1-c1cc(C(=O)O)ccn1` [Example 127, 2-[5-[(4-chloro-2-ethylphenyl)methoxy]pyrazol-1-yl]pyridine-4-carboxylic acid], for which the IC50 in test [1] (Homo sapiens) lay within 1 to 10 µM; in test [3], 1 to 10 µM; in test [4], 0.1 to 1 µM; in test [6] it was 0.1 to 1 µM.

Take `O=C(O)c1ccnc(-n2nccc2OCc2ccc(Br)cc2)c1` [Example 57, 2-{5-[(4-bromobenzyl)oxy]-1H-pyrazol-1-yl}pyridine-4-carboxylic acid]: the IC50 was 0.1 to 1 µM in test [1] (Homo sapiens), less than 0.1 µM in test [3], less than 0.1 µM in test [4] and less than 0.1 µM in test [6].

For `O=C(O)c1ccnc(-n2nc(C3CC3)cc2O)c1` [Example 2, 2-(3-cyclopropyl-5-hydroxy-1H-pyrazol-1-yl)isonicotinic acid], the IC50 in test [2] was less than 0.1 µM; in test [3] it was 0.1 to 1 µM; in test [4], less than 0.1 µM; in test [5] it was 0.1 to 1 µM; in test [6], less than 0.1 µM.

As to “methyl 2-[5-(benzyloxy)-1H-pyrazol-1-yl]pyridine-4-carboxylate [Example 62]”, the IC50 in test [1] fell in the range of 1 to 10 µM.

In the case of `O=C(O)c1ccnc(-n2nccc2OCc2ccc(Cl)c(F)c2)c1` [Example 74, 2-{5-[(4-chloro-3-fluorobenzyl)oxy]-1H-pyrazol-1-yl}pyridine-4-carboxylic acid], the IC50 in test [1] (Homo sapiens) is 1 to 10 µM; in test [3], less than 0.1 µM; in test [4], less than 0.1 µM; in test [6], less than 0.1 µM.

Turning to `CC1(C)Cc2cccc(COc3ccnn3-c3cc(C(=O)O)ccn3)c2O1` [Example 124, 2-[5-[(2,2-dimethyl-3H-1-benzofuran-7-yl)methoxy]pyrazol-1-yl]pyridine-4-carboxylic acid], the figures for the IC50 in test [1] (Homo sapiens), in test [4] and in test [6] were more than 10 µM, 0.1 to 1 µM and less than 0.1 µM, respectively.

As to `O=C(O)c1ccnc(-n2nc(-c3ccc(Cl)cc3)cc2O)c1` [Example 158, 2-[3-(4-chlorophenyl)-5-hydroxypyrazol-1-yl]pyridine-4-carboxylic acid], the IC50 was less than 0.1 µM in test [2]; 1 to 10 µM in test [3]; 1 to 10 µM in test [4]; 1 to 10 µM in test [5]; 1 to 10 µM in test [6].
